These results are taken from US20250129095A1, “ANNULATED 2-AMINO-3-CYANO THIOPHENES AND DERIVATIVES FOR THE TREATMENT OF CANCER” (Boehringer Ingelheim Int'l GmbH Corp., priority 2021, published 2025).

Structures are written as SMILES.

As a reminder, the IC50 is the concentration at which inhibition is half-maximal.

In this assay the target is T1, KRAS (G13D)::SOS1 (Homo sapiens, UniProt P01116, C118S/G13D).
T1 construct: KRAS (G13D) 1-169, N-terminal 6His-tag for purification, cleaved off; 6His-tag (N, cleaved yes); TEV cleavage site; made in house
T1 sequence (P01116 1-169 isoform P01116-2 G13D/C118S): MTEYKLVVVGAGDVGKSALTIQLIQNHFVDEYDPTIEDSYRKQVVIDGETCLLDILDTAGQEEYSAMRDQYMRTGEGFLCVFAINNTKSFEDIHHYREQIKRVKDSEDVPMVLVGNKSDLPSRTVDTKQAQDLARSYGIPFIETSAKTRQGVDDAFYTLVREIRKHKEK
In words: KRAS::SOS1 AlphaScreen binding assay, KRAS G13D. An excerpt: This assay can be used to examine the potency with which compounds according to the invention binding to (mutated) KRAS inhibit the protein-protein interaction between SOS1 and (mutated) KRAS e.g., KRAS WT, KRAS G12C, KRAS G12D, KRAS G12V, KRAS G13D. […] Low IC50 values in this assay setting are indicative of strong inhibition of protein-protein interaction between SOS1 and KRAS:
These assays measure the inhibitory effect of compounds on KRAS mutant protein-protein interactions using the Alpha Screen technology by Perkin Elmer […]
Plates are kept at room temperature in a darkened incubator. After an additional 60 minutes incubation time the signal is measured in a PerkinElmer Envision HTS Multilabel Reader using the AlphaScreen specs from PerkinElmer. […]
As internal control known inhibitors of KRAS mutant::SOS1 interaction can be measured on each compound plate. […]
`C[C@H](Oc1cc(OCC2(N(C)C)COC2)nc(-c2noc3c2CCC[C@@]32CCCc3sc(N)c(C#N)c32)n1)[C@@H]1CCCN1C` [II-22] returned an IC50 of 6 nM.
Then `COc1c(OCC2(N(C)C)COC2)nc(-c2noc3c2CCC[C@@]32CCCc3sc(N)c(C#N)c32)nc1O[C@@H](C)[C@@H]1CCCN1C` [II-25], with 8 nM.
Then `C[C@H](Oc1cc(OCC2(N(C)C)COC2)nc(-c2onc3c2CCC[C@@]32CCCc3sc(N)c(C#N)c32)n1)[C@@H]1CCCN1C` [Example I-8], with 8 nM.
